As a reminder, the IC50 is the concentration needed to halve the response being measured. Low values mean greater potency in that assay, high ones weaker potency in that assay.

In patent US10611775B2, “Thiophene derivatives” (TIANJIN HEMAY PHARMACEUTICAL CO., LTD., priority 2009, dated 2020) one finds IC50 data, which are given here for 16 compounds.

Assay [1] concerns TNFα release by PBMCs stimulated by LPS. As to the kind of experiment: Inhibition of TNFα release by mononuclear cells (PBMCs) stimulated by LPS. The assay is classed as cell-based. Particulars: compound 1 hour before LPS, further 20 hours, TNFα in supernate by ELISA. The source says:
1. Effects of Mononuclear Cells (PBMCs) Stimulated by LPS on TNFα
The research in respect of cytokine TNFα release by PBMCs in the human peripheral blood after stimulated by lipopolysaccharide (LPS) can be carried out in vitro. The research method for inhibiting cytokine TNFα release by PBMCs upon stimulation by LPS with the pharmaceutical active ingredients in the present application is described as follows.
PBMCs are obtained from heparin treated blood of at least three volunteer donors. The heparin treated blood of at least three volunteer donors was subject to gradient separation of the known method to obtain PBMCs. The PBMCs were collected and washed with 1640 medium (10% fetal bovine serum, 2 mM L-glutamine, […] mercaptoethanol, 50 μg/ml streptomycin and 50 U/ml penicillin) three times. The PBMCs was added into a 24-well plate and prepared with a concentration of 1×10^6 cell/ml with 1640 medium. A compound to be tested was dissolved in dimethylsulfoxide and prepared as a solution of the compound to be tested with a required concentration. The solution was added into the cell cultures. After incubated in a CO2 incubator (5% CO2, 90% humidity) for 1 hour, LPS (Sigma) was added until […] (except for the control).
After the medium was further incubated for 20 hours, the content of TNFα in the supernate of the PBMCs medium was measured by the standard method with commercial ELISA kit (U. S Genzyme Co). The inhibition ratio of TNFα was calculated by the measured value of control well without treated by active ingredients and the measured value of the test well using the test compound. The concentration of generating 50% inhibition of the TNFα release (IC50 value) was calculated with nonlinear regression analysis. Each concentration was measured twice simultaneously and an average value was calculated.

Assay [2] addresses T1, PDE4B1 (Homo sapiens, UniProt Q07343).
T1 construct: purchased BPS bioscience 60041
As to the kind of experiment: Inhibitory activity of PDE4 enzyme (hydrolysis of cAMP), PDE4B1. The class given is biochemical. The note with it: cAMP 5 μM, 37° C., 15 min to 30 min, AMP by HPLC-MS. On the procedure: (§1) (1) The inhibitory actions of compounds on activity of hydrolyzing cAMP with PDE4 enzyme were assayed by the inhibitory activity of PDE4 enzyme. The procedures are described as follows.
(§2) Humanized PDE4A1A, PDE4B1 and PDE4D2 were purchased from BPS bioscience (catalogue Nos.: 60040, 60041 and 60043, respectively). The enzyme reactions were carried out in 10 mM Tris-HCl (pH 7.4) and 1 mM MgCl2. The concentration of cAMP was 5 μM. The reaction was maintained at 37° C. for 15 min to 30 min so that the consumption of the substrate was controlled within 20%. The reaction was quenched with equal volume of acetonitrile. The production amount of the […] AMP was measured by HPLC-MS. The inhibitory activity of compounds on PDE4 enzyme was obtained by comparing the production amounts of the AMP in the experimental groups having the compounds with those of the control groups having no compounds.

For assay [3], the target named is T2, PDE4D2 (Homo sapiens, UniProt Q08499).
T2 construct: purchased BPS bioscience 60043
T2 sequence (Q08499 303-809): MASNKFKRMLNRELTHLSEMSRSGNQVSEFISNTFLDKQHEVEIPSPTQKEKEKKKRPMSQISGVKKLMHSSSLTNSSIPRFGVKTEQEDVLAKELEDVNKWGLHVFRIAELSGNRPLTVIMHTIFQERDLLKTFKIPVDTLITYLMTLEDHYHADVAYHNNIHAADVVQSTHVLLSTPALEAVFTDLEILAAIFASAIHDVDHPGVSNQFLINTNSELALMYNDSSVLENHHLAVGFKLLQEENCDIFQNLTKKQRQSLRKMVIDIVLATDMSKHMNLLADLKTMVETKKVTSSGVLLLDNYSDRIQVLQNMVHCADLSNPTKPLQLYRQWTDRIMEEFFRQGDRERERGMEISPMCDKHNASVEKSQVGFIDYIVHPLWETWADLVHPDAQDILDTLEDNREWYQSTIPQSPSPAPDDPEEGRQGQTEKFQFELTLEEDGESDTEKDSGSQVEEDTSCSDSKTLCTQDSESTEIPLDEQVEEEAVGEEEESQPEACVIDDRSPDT
As to the kind of experiment: Inhibitory activity of PDE4 enzyme (hydrolysis of cAMP), PDE4D2. The class given is biochemical. Particulars: cAMP 5 μM, 37° C., 15 min to 30 min, AMP by HPLC-MS. On the procedure:
as §1, §2

Assay [4] deals with T3, PDE4A1A (Homo sapiens, UniProt P27815).
T3 construct: purchased BPS bioscience 60040
T3 sequence (P27815 1-647 isoform P27815-4): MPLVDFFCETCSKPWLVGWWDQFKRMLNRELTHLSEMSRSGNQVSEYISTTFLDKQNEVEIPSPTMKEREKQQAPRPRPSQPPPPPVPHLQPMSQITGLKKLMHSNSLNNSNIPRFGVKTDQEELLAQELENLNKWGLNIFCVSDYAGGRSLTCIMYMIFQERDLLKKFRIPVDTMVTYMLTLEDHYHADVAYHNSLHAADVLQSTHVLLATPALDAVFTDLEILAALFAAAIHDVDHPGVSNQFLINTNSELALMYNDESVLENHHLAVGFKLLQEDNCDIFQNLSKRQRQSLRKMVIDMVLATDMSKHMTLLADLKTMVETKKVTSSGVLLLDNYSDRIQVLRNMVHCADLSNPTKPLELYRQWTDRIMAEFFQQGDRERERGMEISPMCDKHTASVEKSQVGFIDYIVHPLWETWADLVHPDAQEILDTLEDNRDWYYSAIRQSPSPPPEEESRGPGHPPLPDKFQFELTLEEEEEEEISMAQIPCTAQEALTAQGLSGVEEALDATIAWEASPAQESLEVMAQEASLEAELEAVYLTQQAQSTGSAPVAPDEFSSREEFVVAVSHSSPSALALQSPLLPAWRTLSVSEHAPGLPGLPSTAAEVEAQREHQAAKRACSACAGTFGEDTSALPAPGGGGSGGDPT
In words: Inhibitory activity of PDE4 enzyme (hydrolysis of cAMP), PDE4A1A. Particulars: cAMP 5 μM, 37° C., 15 min to 30 min, AMP by HPLC-MS. The assay is classed as biochemical. As for the experimental part:
as §1, §2

Assay [5] deals with T4, PDE2A (Homo sapiens, UniProt O00408).
T4 construct: purchased BPS bioscience 60020
T4 sequence (O00408 whole entry): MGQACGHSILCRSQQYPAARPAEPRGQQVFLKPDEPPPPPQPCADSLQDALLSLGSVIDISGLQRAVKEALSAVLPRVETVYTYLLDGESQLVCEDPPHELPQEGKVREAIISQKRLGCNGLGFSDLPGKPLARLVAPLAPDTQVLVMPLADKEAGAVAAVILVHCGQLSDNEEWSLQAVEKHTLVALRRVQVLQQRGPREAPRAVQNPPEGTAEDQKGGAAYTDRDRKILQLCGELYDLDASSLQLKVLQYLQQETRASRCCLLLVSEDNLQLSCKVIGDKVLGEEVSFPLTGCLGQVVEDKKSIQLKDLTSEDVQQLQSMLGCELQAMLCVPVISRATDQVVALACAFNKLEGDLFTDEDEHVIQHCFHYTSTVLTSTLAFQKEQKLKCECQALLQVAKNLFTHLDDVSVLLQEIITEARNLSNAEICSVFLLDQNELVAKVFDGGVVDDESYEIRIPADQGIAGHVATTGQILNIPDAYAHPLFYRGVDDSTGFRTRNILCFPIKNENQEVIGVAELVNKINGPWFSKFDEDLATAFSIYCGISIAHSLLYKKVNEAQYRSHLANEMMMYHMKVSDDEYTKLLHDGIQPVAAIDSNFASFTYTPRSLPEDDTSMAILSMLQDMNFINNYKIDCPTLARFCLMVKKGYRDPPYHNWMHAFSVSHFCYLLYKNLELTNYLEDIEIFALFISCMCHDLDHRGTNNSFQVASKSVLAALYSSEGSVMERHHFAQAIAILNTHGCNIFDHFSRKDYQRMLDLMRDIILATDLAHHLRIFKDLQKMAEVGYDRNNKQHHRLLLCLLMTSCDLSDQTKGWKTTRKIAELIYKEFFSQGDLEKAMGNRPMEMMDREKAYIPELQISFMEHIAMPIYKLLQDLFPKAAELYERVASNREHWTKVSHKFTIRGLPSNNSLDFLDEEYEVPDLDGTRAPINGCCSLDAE
As to the kind of experiment: Inhibitory activity of PDE2 (selectivity of PDE enzyme). The assay is classed as biochemical. The note with it: cAMP 5 μM, 37° C., 30 min, AMP by HPLC-MS. On the procedure:
(2) Inhibitory Activity of PDE2 (Selectivity of PDE Enzyme):
as §2, with “PDE2A was” for “PDE4A1A, PDE4B1 and PDE4D2 were”, “No.: 60020).” for “Nos.: 60040, 60041 and 60043, respectively).”, “reaction was” for “reactions were”, “μM,” for “μM.”, “for” for “for 15 min to”, “PDE2” for “PDE4 enzyme”

T1 sequence (Q07343 whole entry): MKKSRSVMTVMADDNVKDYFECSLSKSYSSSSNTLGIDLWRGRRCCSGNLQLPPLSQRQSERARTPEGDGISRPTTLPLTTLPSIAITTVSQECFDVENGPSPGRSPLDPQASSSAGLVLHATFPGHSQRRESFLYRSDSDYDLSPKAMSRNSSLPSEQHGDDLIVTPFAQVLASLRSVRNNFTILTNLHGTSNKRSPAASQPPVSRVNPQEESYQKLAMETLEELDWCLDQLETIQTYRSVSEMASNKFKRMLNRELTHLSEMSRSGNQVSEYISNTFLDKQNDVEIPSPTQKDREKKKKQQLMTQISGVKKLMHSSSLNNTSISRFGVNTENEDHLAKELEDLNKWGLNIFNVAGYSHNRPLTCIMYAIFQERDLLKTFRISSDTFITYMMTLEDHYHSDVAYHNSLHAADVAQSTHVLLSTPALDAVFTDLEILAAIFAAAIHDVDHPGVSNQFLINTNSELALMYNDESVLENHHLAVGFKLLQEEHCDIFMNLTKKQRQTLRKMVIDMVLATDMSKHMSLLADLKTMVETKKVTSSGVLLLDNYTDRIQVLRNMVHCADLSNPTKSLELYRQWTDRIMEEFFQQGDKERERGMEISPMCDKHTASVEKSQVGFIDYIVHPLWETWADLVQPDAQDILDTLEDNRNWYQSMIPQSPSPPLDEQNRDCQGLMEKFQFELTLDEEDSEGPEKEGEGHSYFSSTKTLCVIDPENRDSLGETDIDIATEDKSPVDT

Turning to `CCOc1cc(C(CS(C)(=O)=O)N2C(=O)c3csc(N)c3C2=O)ccc1OC` (stereo not shown) [Example 2, 5-(1-(3-ethoxy-4-methoxyphenyl)-2-(methylsulfonyl)ethyl)-1-amino-5H-thiophene[3,4-c]pyrrole-4,6-diketone], the IC50 in assay [1] (Homo sapiens, PBMC) was 524 nM; in assay [2], 212 nM; in assay [3], 1900 nM.
On to `CCOc1cc(C(CS(C)(=O)=O)N2C(=O)c3csc(NC(C)=O)c3C2=O)ccc1OC` (stereo not shown) [Example 3, N-(5-(1-(3-ethoxy-4-methoxyphenyl)-2-(methylsulfonyl)ethyl)-4,6-dioxo-5,6-dihydro-4H-thiophene[3,4-c]pyrrole-1-yl)acetamide], for which the IC50 in assay [1] (human PBMCs) was found to be 296 nM; in assay [2] it was 256 nM; in assay [3], 224 nM; in assay [4] it was 208 nM; in assay [5], 36000 nM.
On to `CCOc1cc(C(CS(C)(=O)=O)N2C(=O)c3cscc3C2=O)ccc1OC` (stereo not shown) [Example 4, 5-(1-(3-ethoxy-4-methoxyphenyl)-2-(methylsulfonyl)ethyl)-5H-thiophene[3,4-c]pyrrole-4,6-diketone], for which the IC50 came to 886 nM in assay [1] (Homo sapiens, PBMC); 1200 nM in assay [2]; 329 nM in assay [3]; 366 nM in assay [4].
As to `CCOc1cc([C@@H](CS(C)(=O)=O)N2C(=O)c3cscc3C2=O)ccc1OC` [Example 5, (S)-5-(1-(3-ethoxy-4-methoxyphenyl)-2-(methylsulfonyl)ethyl)-5H-thiophene[3,4-c]pyrrole-4,6-diketone], the concentration for half-maximal inhibition (IC50) in assay [1] (Homo sapiens, PBMC) was determined as 376 nM; in assay [2], 368 nM.
As to `CCOc1cc([C@H](CS(C)(=O)=O)N2C(=O)c3cscc3C2=O)ccc1OC` [Example 6, (R)-5-(1-(3-ethoxy-4-methoxyphenyl)-2-(methylsulfonyl)ethyl)-5H-thiophene[3,4-c]pyrrole-4,6-diketone], the IC50 in assay [1] (Homo sapiens, PBMC) is 2500 nM; in assay [2], 2300 nM; in assay [3], 315 nM.
Taken in the same sequence, the figures for `COc1ccc(C(CS(C)(=O)=O)N2C(=O)c3cscc3C2=O)cc1OCc1ccccc1` (stereo not shown) [Example 9, 5-(1-(3-phenylmethoxy-4-methoxyphenyl)-2-(methylsulfonyl)ethyl)-5H-thiophene[3,4-c]pyrrole-4,6-diketone] were 7500 nM, 5300 nM and 831 nM.
For the compound `COc1ccc(C(CS(C)(=O)=O)N2C(=O)c3csc(N)c3C2=O)cc1OCc1ccccc1` (stereo not shown) [Example 11, 5-(1-(3-phenylmethoxy-4-methoxyphenyl)-2-(methylsulfonyl)ethyl)-1-amino-5H-thiophene[3,4-c]pyrrole-4,6-diketone], the IC50 in assay [1] (Homo sapiens, PBMC) is over 10000 nM; in assay [2] it was 1000 nM.
Taken in the same sequence, the figures for `COc1ccc(C(CS(C)(=O)=O)N2C(=O)c3csc(NC(C)=O)c3C2=O)cc1OCc1ccccc1` (stereo not shown) [Example 12, N-(5-(1-(3-phenylmethoxy-4-methoxyphenyl)-2-(methylsulfonyl)ethyl)-4,6-dioxo-5,6-dihydro-4H-thiophene[3,4-c]pyrrole-1-yl)acetamide] were over 10000 nM and 1200 nM.
Consider `CCOc1cc(C(CS(C)(=O)=O)N2C(=O)c3csc(NC(=O)CCl)c3C2=O)ccc1OC` (stereo not shown) [Example 18, 2-chloro-N-(5-(1-(3-ethoxy-4-methoxyphenyl)-2-(methylsulfonyl)ethyl)-4,6-diketone-5,6-dihydro-4H-thiophene[3,4-c]pyrrole-1-yl)acetamide], for which the half-maximal inhibitory concentration (IC50) in assay [1] (Homo sapiens, PBMC) came out at 216 nM; in assay [2] it was 618 nM.
With `CCOc1cc(C(CS(C)(=O)=O)N2C(=O)c3csc(NS(C)(=O)=O)c3C2=O)ccc1OC` (stereo not shown) [Example 19, N-(5-(1-(3-ethoxy-4-methoxyphenyl)-2-(methylsulfonyl)ethyl)-4,6-diketone-5,6-dihydro-4H-thiophene[3,4-c]pyrrole-1-yl)methanesulfonamide], the IC50 was found to be 288 nM in assay [1] (Homo sapiens, PBMC) and 167 nM in assay [2].
In assay [2], `CCOc1cc([C@@H](CS(C)(=O)=O)N2C(=O)c3csc([N+](=O)[O-])c3C2=O)ccc1OC` [Example 20, (S)-1-nitro-5-(1-(3-ethoxy-4-methoxyphenyl)-2-(methylsulfonyl)ethyl)-5H-thiophene[3,4-c]pyrrole-4,6-diketone] displayed a half-inhibitory concentration (IC50) of 26 nM.
`CCOc1cc([C@@H](CS(C)(=O)=O)N2C(=O)c3csc(N)c3C2=O)ccc1OC` [Example 21, (S)-1-amino-5-(1-(3-ethoxy-4-methoxyphenyl)-2-(methylsulfonyl)ethyl)-5H-thiophene[3,4-c]pyrrole-4,6-diketone] returned a half-inhibitory concentration (IC50) in assay [1] (human PBMCs) of 142 nM.
Turning to `CCOc1cc([C@H](CS(C)(=O)=O)N2C(=O)c3csc(N)c3C2=O)ccc1OC` [Example 23, (R)-1-amino-5-(1-(3-ethoxy-4-methoxyphenyl)-2-(methylsulfonyl)ethyl)-5H-thiophene[3,4-c]pyrrole-4,6-diketone], the 50% inhibitory concentration (IC50) turned out to be 1900 nM in assay [1] (Homo sapiens, PBMC); 718 nM in assay [2]; 55 nM in assay [3].
On to `CCOc1cc([C@@H](CS(C)(=O)=O)N2C(=O)c3csc(NC(C)=O)c3C2=O)ccc1OC` [Example 24, (S)—N-(5-(1-(3-ethoxy-4-methoxyphenyl)-2-(methylsulfonyl)ethyl)-4,6-dioxo-5,6-dihydro-4H-thiophene[3,4-c]pyrrole-1-yl)acetamide], for which the 50% inhibitory concentration (IC50) was 65 nM in assay [1] (human PBMCs); 178 nM in assay [2]; 114 nM in assay [3]; 104 nM in assay [4]; over 50000 nM in assay [5].
Consider `CCOc1cc([C@H](CS(C)(=O)=O)N2C(=O)c3csc(NC(C)=O)c3C2=O)ccc1OC` [Example 25, (R)—N-(5-(1-(3-ethoxy-4-methoxyphenyl)-2-(methylsulfonyl)ethyl)-4,6-dioxo-5,6-dihydro-4H-thiophene[3,4-c]pyrrole-1-yl)acetamide], for which the concentration for half-maximal inhibition (IC50) in assay [1] (human PBMCs) is 1190 nM.
Still for that read-out and setting: under `CCOc1ccc(C(CS(C)(=O)=O)N2C(=O)c3csc(NC(C)=O)c3C2=O)cc1OC` (stereo not shown) [Example 26, N-(5-(1-(3-methoxy-4-ethoxyphenyl)-2-(methylsulfonyl)ethyl)-4,6-dioxo-5,6-dihydro-4H-thiophene[3,4-c]pyrrole-1-yl)acetamide] stands over 10000 nM.
